Where two headings read alike, the source gives them in different places.
Key:
[1] = person, Type 2 diabetes; metformin 1000 mg b.i.d.; combination after 3 months
[2] = person with Type 2 diabetes; metformin 500 mg b.i.d.; combination after 2 months
[3] = cited from earlier work
[4] = hypertensive obese non-diabetic women; cited from earlier work
[5] = after 14 weeks, cited from earlier work
[6] = NIDDM patients; cited from earlier work
[7] = dietary; STZ-induced diabetic rats; cited from earlier work
Na/K ATPase = conditions: catalytic cycle of Na/K ATPase; cited from earlier work
[8] = treatment periods of up to one year; cited from earlier work
[9] = cited from earlier work; remark: listed apart in the source
[10] = rat, in vivo, po; cited from earlier work

Compound: CN(C)C(=N)NC(=N)N [Metformin alone, N,N-dimethylimidodicarbonimidicdiamide]
- HbA1c level [1]: 8.3
- Cholesterol [2]: 229
- Estimated Blood Sugar [2]: 200 mg/dL
- Fasting Blood Sugar [2]: 185 mg/dL
- HDL [2]: 52
- HbA1c level [2]: 9.7
- LDL [2]: 133
- Triglycerides [2]: 220
- HbA1c level after metformin therapy ([3]; after 29 weeks, alone or in combination with sulfonylurea, improved from 8.6%): 7.1%
- effect on serum lipids ([3]; moderately obese Type 2 diabetics): lowering mean fasting serum triglycerides, total cholesterol, and LDL cholesterol levels
- blood pressure, plasma insulin, fibrinogen [4]: decreased blood pressure, fasting and glucose-stimulated plasma insulin fibrinogen
- reduction of HbA1c ([5]; 500 mg daily): 0.9%
- reduction of HbA1c ([5]; 2000 mg daily): 2.0%

Compound: CC(=O)N[C@@H](CS)C(=O)O [NAC, N-acetylcysteine]
- reduction of apolipoprotein A1 [6]: over 20%
- development of peripheral neuropathy [7]: appeared to inhibit the development of peripheral neuropathy

Compound: [O]=[V]([O-])([O-])[O-] [vanadate]
- concentration inhibiting formation of EP (Na/K ATPase): less than 1 micromolar

Compound: O=S(=O)([O-])[O-].[O]=[V+2] [vanadyl sulfate]
- apparent toxicity [8]: does not appear not to be associated with any apparent toxicity

Compound: Cc1c(C)c2c(c(C)c1O)CC[C@@](C)(CCC[C@H](C)CCC[C@H](C)CCCC(C)C)O2 [vitamin E, free 2R,4′R,8′R-alpha-tocopherol]
- non-fatal myocardial infarction ([9]; 400 or 800 I.U. daily, patients with coronary artery disease): dramatic and significant reduction of non-fatal myocardial infarction
- side effects versus placebo ([9]; 400 or 800 I.U.): no difference between the alpha-tocopherol treatment (400 or 800 I.U.) or placebo groups for side effects

Compound: chromium picolinate
- rate of absorption relative to chromium trichloride [10]: about four times greater than chromium trichloride
